Literature values in patent publication US20240277627A1, “NOVEL FLUOROCHEMICAL CARDIAC RESUSCITATION” (NUVOX PHARMA LLC, priority 2023, published 2024).

metabolism / route of clearance (clears from the body via exhalation): not metabolized | terminal half-life (humans): about 90 minutes
Compound: FC(F)(F)C(F)(F)C(F)(F)C(F)(F)C(F)(F)F [DDFP, n-dodecafluoropentane]
